Laboratory results taken from PubChem BioAssay AID2286 (Southern Research Specialized Biocontainment Screening …, 2010).
Active and inactive are the calls of the source.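 Rule for the calls: active = minimum cell viability of 80% or lower across the dose range, counted as toxic; inactive = minimum cell viability above 80%.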

Test: viability loss in fusion assay cells – cell-based, MAGI and MAGI-HeLa co-culture, cytotoxicity control for HIV-1 fusion inhibitor project, dose response (AID 2286);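 note: cells exposed to compound for at least 64 h before ATP readout; 100% = median of DMSO vehicle wells with no ATP signal meaning 0%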
Details: MAGI-CCR5 cells viability, CellTiter-Glo ATP luminescence; for minimum viability: measured here: MAGI minimum viability across doses
[1] = MAGI-HeLa co-culture viability, at 50 µM, stronger effect = lower value
[2] = at 1.56 µM, stronger effect = lower value
[3] = at 12.5 µM, stronger effect = lower value
[4] = at 3.13 µM, stronger effect = lower value

Row | Structure (SMILES) | viability [1] | minimum viability (at 50 µM, stronger effect = lower value) | viability (at 50 µM (top of the series)) | further results
1 | O=C(COc1cccc2ccccc12)Nc1ccc(Cl)cc1C(=O)O | 86.1% | 67.5% |  | 
2 | CCc1nnc(NS(=O)(=O)c2ccc(NC(=O)/C=C/c3ccccc3Cl)cc2)s1 | 109% |  | 96.3% (inactive) | minimum viability [2]: 95.9%
3 | Cc1noc(NS(=O)(=O)c2ccc(NC(=O)Nc3ccc(Cl)c(Cl)c3)cc2)c1C | 120% |  | 95.5% (inactive) | minimum viability [3]: 93%
4 | O=C(COc1ccc2ccccc2c1)Nc1cccc(C(=O)Nc2ccccc2C(=O)O)c1 | 101% | 83.3% | 83.3% (inactive) | 
5 | O=C(N/N=C/c1cc(Br)c(O)c(Br)c1)c1cc2c(ccc3ccccc32)o1 | 112% |  |  | viability (at 25 µM (top of the series)): 81.4% (inactive); minimum viability (at 25 µM, stronger effect = lower value): 81.4%
6 | COc1ccc(/C=C2/SC(=O)N(CCCCCC(=O)Nc3ccccc3C(=O)O)C2=S)cc1 | 122% | 66.9% |  | 
7 | O=C(O)COc1ccccc1/C=N/Nc1ccc(S(=O)(=O)Nc2ccc(Cl)cc2)cc1[N+](=O)[O-] | 103% |  | 99.2% (inactive) | minimum viability (at 25 µM, stronger effect = lower value): 90.6%
8 | O=C1NN(c2ccc(Cl)c(Cl)c2)C(=O)/C1=C/c1ccc(-c2ccccc2C(=O)O)o1 | 121% |  | 105% (inactive) | minimum viability [2]: 89.7%
9 | CCOC(=O)C1=C(C)N=c2s/c(=C/c3ccc(OCC(=O)O)cc3)c(=O)n2C1c1ccc(SC)cc1 (stereo unspecified) | 101% | 88.1% | 88.1% (inactive) | 
10 | COc1cc(/C=N/NC(=O)C(Cc2c[nH]c3ccccc23)NC(=O)OCc2ccccc2)cc([N+](=O)[O-])c1O (stereo unspecified) | 107% |  | 95% (inactive) | minimum viability (at 25 µM, stronger effect = lower value): 92.5%
11 | O=C(O)CSc1nc(-c2ccc(Cl)cc2)nc2c1oc1ccccc12 | 108% |  |  | viability (at 25 µM (top of the series)): 86.3% (inactive); minimum viability [4]: 86.2%
12 | CC(C)(C)c1ccc2c(c1)OC(C(=O)N/N=C\c1ccc(-c3cccc(C(=O)O)c3)o1)CO2 (stereo unspecified) | 105% |  | 87.8% (inactive) | minimum viability [4]: 87.5%
13 | Cc1cc(N2C(=O)C(O)=C(C(=O)c3cc4ccccc4o3)C2c2ccc(Cl)cc2)no1 (stereo unspecified) | 123% | 83.2% | 83.2% (inactive) | 
14 | CC1=NN(c2ccc(C(=O)O)cc2)C(=O)/C1=C\c1ccc(OC(=O)c2cccs2)cc1 | 120% |  | 94.8% (inactive) | minimum viability [2]: 93.5%
15 | O=C(O)/C=C/C(=O)Nc1ccc(C2(c3ccc(NC(=O)/C=C/C(=O)O)cc3)c3ccccc3-c3ccccc32)cc1 | 120% |  | 93.2% (inactive) | minimum viability (at 25 µM, stronger effect = lower value): 88.8%
16 | O=C(O)c1ccccc1N=Nc1c(O)[nH]c2ccc([N+](=O)[O-])cc12 | 87.3% | 90.2% | 90.2% (inactive) | 
17 | CCOc1cc(/C=C2/C(=N)N3C(=NC2=O)SN=C3S(=O)(=O)CC)ccc1OC(=O)c1ccco1 | 108% |  | 112% (inactive) | minimum viability (at 0.1 µM, stronger effect = lower value): 106%
18 | O=C(O)c1ccc(NS(=O)(=O)c2ccc3c(c2)C2C=CCC2C(c2ccccc2F)N3)cc1 (stereo unspecified) | 111% |  | 102% (inactive) | minimum viability [4]: 93.8%
19 | COc1cc(/C=C2\C(=N)N3N=C(S(C)(=O)=O)SC3=NC2=O)ccc1OS(=O)(=O)c1ccccc1 | 113% | 91.8% | 91.8% (inactive) | 
20 | CC(C)COc1ccc(-c2nn(-c3ccccc3)cc2/C=C2/SC(=S)N(CC(=O)O)C2=O)cc1 | 90.2% | 81.5% | 81.5% (inactive) | 
21 | Cc1cc(N2C(=O)C(O)=C(C(=O)c3ccc(C)o3)C2c2cccc(Oc3ccccc3)c2)no1 (stereo unspecified) | 89% | 82.1% | 82.1% (inactive) | 

Row | Structure (SMILES) | viability [1] | minimum viability (at 50 µM, stronger effect = lower value) | viability (at 50 µM (top of the series)) | further results
22 | Cc1cccc(S(=O)(=O)Nc2nc3ccccc3nc2Nc2cccc(C(=O)O)c2)c1 | 100% | 88.6% | 88.6% (inactive) | 
23 | CC(C)(C)OC(=O)N1CCC(c2cc(=O)n3[nH]cc(C(=O)Nc4ccc(F)c(Cl)c4)c3n2)CC1 | 98.3% |  | 97.5% (inactive) | minimum viability (at 25 µM, stronger effect = lower value): 88.7%
24 | O=C(O)CN1C(=O)/C(=C\c2cc(Br)ccc2OCc2ccccc2Cl)SC1=S | 112% |  | 106% (inactive) | minimum viability [4]: 94.6%
25 | CCS(=O)(=O)C1=NSC2=NC(=O)/C(=C\c3ccc(OS(=O)(=O)c4ccccc4)cc3)C(=N)N21 | 85.9% | 74.9% |  | 
26 | O=C(Nc1cccc(C(F)(F)F)c1)c1cccc(NS(=O)(=O)c2ccc(O)c(C(=O)O)c2)c1 | 107% |  | 85.7% (inactive) | minimum viability (at 25 µM, stronger effect = lower value): 83.3%
27 | Cc1cc(C)cc(-n2cccc2/C=C2/C(=N)N3C(=NC2=O)SN=C3S(C)(=O)=O)c1 | 116% | 96.8% | 96.8% (inactive) | 
28 | COc1cc(/C=N/NS(=O)(=O)c2ccc3ccccc3c2)ccc1OCc1ccc(C(=O)O)cc1 | 115% |  | 93.7% (inactive) | minimum viability (at 25 µM, stronger effect = lower value): 85.7%
29 | CCOc1cc(/C=N/N=C2/NC(=O)C(CC(=O)O)S2)ccc1OCc1ccc(Cl)cc1Cl (stereo unspecified) | 98.7% |  | 96% (inactive) | minimum viability [3]: 83.9%
30 | O=C(O)c1ccc(/C=N/NC(=O)c2ccc(CN3c4cccc5cccc(c45)S3(=O)=O)cc2)cc1 | 93.3% |  | 85% (inactive) | minimum viability (at 6.25 µM, stronger effect = lower value): 83.3%
31 | CS(=O)(=O)C1=NSC2=NC(=O)/C(=C\c3cccn3-c3ccc(Cl)cc3)C(=N)N21 | 93.6% | 88% | 88% (inactive) | 
32 | O=C1N/C(=N\S(=O)(=O)c2ccccc2)S/C1=C\c1cc([N+](=O)[O-])ccc1O | 107% |  | 93.8% (inactive) | minimum viability [3]: 88.1%
33 | CCOC(=O)c1sc(N2C(=O)C(O)=C(C(=O)c3ccc(C)o3)C2c2cccc([N+](=O)[O-])c2)nc1C (stereo unspecified) | 94.6% |  |  | minimum viability (at 25 µM, stronger effect = lower value): 63.8%
34 | O=C(Nc1ccc(-c2nc3ccccc3[nH]2)cc1)c1ccccc1NS(=O)(=O)c1ccc(F)cc1 | 116% | 64.3% |  | 
35 | CCOC(=O)c1sc(N2C(=O)C(O)=C(C(=O)c3ccco3)C2c2cccc([N+](=O)[O-])c2)nc1C (stereo unspecified) | 110% | 83.5% | 83.5% (inactive) | 
36 | O=C(O)c1cc(N/N=C/c2ccc(-c3ccccc3)cc2)ccc1Cl | 87.4% | 69.9% |  | 
37 | CC1=C(C#N)C(=O)NC(=O)/C1=C\c1ccc(-c2cc(C)c(C)cc2[N+](=O)[O-])o1 | 107% |  | 86.5% (inactive) | minimum viability [3]: 83.3%
38 | CCOc1ccc2nc(NC(=O)CSc3nc(-c4ccccc4)c(C#N)c(=O)[nH]3)sc2c1 | 125% |  | 105% (inactive) | minimum viability (at 0.78 µM, stronger effect = lower value): 92.7%
39 | O=C(NCc1ccccc1)c1ccc2c(=O)[nH]c3c(C(=O)NCC4CCCO4)sc(=S)n3c2c1 (stereo unspecified) | 106% | 86.3% | 86.3% (inactive) | 
40 | O=C1NN(c2ccccc2)C(=O)/C1=C\c1cccc(OC(=O)c2cccs2)c1 | 103% | 85.1% | 85.1% (inactive) | 
41 | COc1cccc(-c2coc3c(C)c4oc(=O)c(CCC(=O)O)c(C)c4cc23)c1 | 83.6% | 55.5% |  | 
